6 molecules from patent US8895474B2, “Herbicidally active cyclopentanediones and derivatives thereof, and their use in controlling weeds” (Syngenta Limited, priority 2009, dated 2014) can be followed below.

Format in all cases: in vivo
Holding throughout (settings): 312 h, rate 250 g/ha, evaluated after 13 days, 100=total damage to plant, 0=no damage to plant

Assay [1] deals with Lolium perenne (LOLPE). The experiment in a line: Pre-emergence herbicidal activity, glasshouse pot test. The procedure, abridged: (§1)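 Scored 0–100 (no damage to total damage) 13 days after treatment. Spray was applied 1 day post-sowing, formulated in acetone/water 50:50 plus 0.5% Tween 20, diluted in water. Glasshouse conditions: 24/16 °C, 14 h light, 65% humidity, watered twice daily.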

Assay [2] has as its system Avena fatua (AVEFA). The assay is described as above. In short, it runs like this: as §1
The subject of assay [3] is Alopecurus myosuroides (ALOMY). Described as above. In short, it runs like this: as §1
The test system of assay [4] is Echinochloa crus-galli (ECHCG). The assay is described as above. In short, it runs like this:
as §1

Assay [5] relates to Lolium perenne (LOLPE). Briefly: Post-emergence herbicidal activity, glasshouse pot test. The procedure, abridged:
(§2)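 Plants grown 8 days in soil in a glasshouse (24/16 °C day/night, 14 h light, 65% humidity), then sprayed post-emergence with compound in acetone/water (50:50) with 0.5% Tween 20. Damage scored 13 days later on a 0–100 scale (100 = total damage).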

For assay [6], the system named is Avena fatua (AVEFA). The description is as above. In short, it runs like this:
as §2

The subject of assay [7] is Alopecurus myosuroides (ALOMY). The assay is described as above. The procedure, abridged: as §2
For assay [8], the system named is Echinochloa crus-galli (ECHCG). Described as above. In short, it runs like this:
as §2

Turning to `CCc1ccc(Oc2ccc(Cl)c(F)c2)cc1C1=C(O)CCC1=O` [Compound A-41], the pest or weed control at 250 g/ha stood at 0% in assay [1]; 0% in assay [2]; 0% in assay [3]; 30% in assay [4]; 20% in assay [5]; 10% in assay [6]. The figures for the pest or weed control at 250 g/ha in assay [7] and in assay [8] were 0% and 70%, respectively.

With `CCc1ccc(Oc2nc3ccccc3s2)cc1C1=C(O)C2C(C1=O)[C@H]1CC[C@@H]2CC1` (stereo partly drawn) [Compound A-16], the pest or weed control at 250 g/ha in assay [1] turned out to be 70%; in assay [2], 30%; in assay [3] it was 40%; in assay [4] it was 90%; in assay [5], 70%; in assay [6], 90%. The pest or weed control at 250 g/ha in assay [7] was 70%; in assay [8], 100%.

With `CCc1ccc(Oc2ccc(Br)cc2Cl)cc1C1=C(O)[C@H]2[C@H]3CC[C@H](C3)[C@H]2C1=O` [Compound A-20], the pest or weed control at 250 g/ha in assay [1] was 50%; in assay [2], 10%; in assay [3], 50%; in assay [4], 60%; in assay [5], 20%; in assay [6], 0%. Further, the pest or weed control at 250 g/ha was 30% in assay [7] and 70% in assay [8].

Consider `CCc1ccc(Oc2ccc(F)cc2)cc1C1=C(O)[C@H]2[C@H]3CC[C@H](C3)[C@H]2C1=O` [Compound A-23], for which the pest or weed control at 250 g/ha in assay [1] turned out to be 30%; in assay [2], 0%; in assay [3] it was 0%; in assay [4], 80%; in assay [5] it was 20%; in assay [6], 0%. For the same molecule, the figures for the pest or weed control at 250 g/ha in assay [7] and in assay [8] were 50% and 60%, respectively.

In the case of `CCc1ccc(Oc2nc3ccc(C(F)(F)F)cc3s2)cc1C1=C(O)C2C(C1=O)[C@H]1CC[C@@H]2CC1` (stereo partly drawn) [Compound A-108], the pest or weed control at 250 g/ha came to 50% in assay [1]; 10% in assay [2]; 30% in assay [3]; 80% in assay [4]; 70% in assay [5]; 90% in assay [6]. For the same molecule, the values for the pest or weed control at 250 g/ha in assay [7] and in assay [8] were 90% and 100%, respectively.

As to `CCc1ccc(Oc2ccc(Br)cc2F)cc1C1=C(O)[C@H]2[C@@H](C1=O)[C@@H]1CC[C@H]2O1` [Compound A-2], the pest or weed control at 250 g/ha in assay [1] came to 60%; in assay [2] it was 30%; in assay [3], 60%; in assay [4] it was 60%; in assay [5] it was 100%; in assay [6], 100%. In addition, the pest or weed control at 250 g/ha in assay [7] and in assay [8] was 100% throughout.

In general, pest or weed control refers to the degree to which the test organism was suppressed or injured, in per cent.
